The values that follow are results of earlier work, collected in patent publication US7271167B2, “Compounds, compositions, and methods” (Cytokinetics, Inc., priority 2002, dated 2007).

In the series the test system is A549 cells. Particulars: data provided by National Cancer Institute, Developmental Therapeutic Program.
`COc1cccc2c1C(=O)c1c(O)c3c(c(O)c1C2=O)C[C@@](O)(C(=O)CO)C[C@@H]3O[C@H]1C[C@H](N)[C@H](O)[C@H](C)O1` [doxorubicin]: the GI50 is 63 nM.

For the molecule `O=c1[nH]cc(F)c(=O)[nH]1` [5-fluorouracil], the concentration for 50% growth inhibition (GI50) is 1000 nM.

Take `CC(=O)O[C@H]1C(=O)[C@@]2(C)[C@H]([C@H](OC(=O)c3ccccc3)[C@]3(O)C[C@H](OC(=O)[C@H](O)[C@@H](NC(=O)c4ccccc4)c4ccccc4)C(C)=C1C3(C)C)[C@]1(OC(C)=O)CO[C@@H]1C[C@@H]2O` [paclitaxel]: the GI50 is 4 nM.

Consider `NC(=O)NO` [hydroxyurea], for which the GI50 is 500000 nM.
